Measurements published in PubChem BioAssay AID1963448 (Molecular Pharmacology Branch, DTP, NCI, 2024).
Values joined by “and” are separate entries in the source; they are usually repeats but may differ in a detail not shown here. Equal entries are not always repeated.

System: 616215-338-R-J1-PDC complex spheroid growth, % test/control
Test: Anticancer human tumor 616215-338-R-J1-PDC patient-derived colon adenocarcinoma cell line growth inhibition [Asc]
Conditions: for viability, T/C: stronger effect = lower value
In short: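 Tumor cells were grown as multicellular spheroids with stromal HUVEC and mesenchymal stem cells and treated singly or in combination. Concentrations fell in half-log steps from the clinical Cmax, or from 10 microM where none was known.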

[1] = curve of first compound, second compound 0.1 µM
[2] = curve of first compound, second compound 0.316 µM
[3] = curve of first compound, second compound 1 µM
[4] = second compound 0.1 µM, first compound 0.00316 µM
[5] = second compound 0.1 µM, first compound 0.01 µM
[6] = second compound 0.1 µM, first compound 0.0316 µM
[7] = second compound 0.1 µM, first compound 0.1 µM
[8] = second compound 0.316 µM, first compound 0.00316 µM
[9] = second compound 0.316 µM, first compound 0.01 µM
[10] = second compound 0.316 µM, first compound 0.0316 µM
[11] = second compound 0.316 µM, first compound 0.1 µM
[12] = second compound 1 µM, first compound 0.00316 µM
[13] = second compound 1 µM, first compound 0.01 µM
[14] = second compound 1 µM, first compound 0.0316 µM
[15] = second compound 1 µM, first compound 0.1 µM
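Note: spheroids exposed to agents for seven days before readout.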
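Throughout, for viability, T/C: 100% = DMSO vehicle control viability.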

O=C(c1ccc(F)c(F)c1Nc1ccc(I)cc1F)N1CC(O)([C@@H]2CCCCN2)C1 + CCN1C(C(=O)NC23CCC(C(=O)O)(CC2)CC3)C(c2cccc(Cl)c2F)C2(C(=O)Nc3cc(Cl)ccc32)C12CCCCC2
IC50 (curve of first compound, second compound 0.03 µM): 70 nM | IC50 (curve of first compound, second compound 0.0949 µM): 52.9 nM | IC50 (curve of first compound, second compound 0.3 µM): 16.4 nM | IC50 (curve of first compound, second compound 0.949 µM): 5.81 nM | IC50 (curve of first compound, second compound 3 µM): < 3.16 nM | viability, T/C (second compound 0.03 µM, first compound 0.00316 µM): 89.9% | viability, T/C (second compound 0.03 µM, first compound 0.01 µM): 88.6% | viability, T/C (second compound 0.03 µM, first compound 0.0316 µM): 90.1% | viability, T/C (second compound 0.03 µM, first compound 0.1 µM): 32.3% | viability, T/C (second compound 0.03 µM, first compound 0.316 µM): 0.26% | viability, T/C (second compound 0.03 µM, first compound 1 µM): 0.38% | viability, T/C (second compound 0.0949 µM, first compound 0.00316 µM): 93.8% | viability, T/C (second compound 0.0949 µM, first compound 0.01 µM): 93.6% | viability, T/C (second compound 0.0949 µM, first compound 0.0316 µM): 74.5% | viability, T/C (second compound 0.0949 µM, first compound 0.1 µM): 19.6% | viability, T/C (second compound 0.0949 µM, first compound 0.316 µM): 0.23% | viability, T/C (second compound 0.0949 µM, first compound 1 µM): 0.37% | viability, T/C (second compound 0.3 µM, first compound 0.00316 µM): 59.8% | viability, T/C (second compound 0.3 µM, first compound 0.01 µM): 57.7% | viability, T/C (second compound 0.3 µM, first compound 0.0316 µM): 38.8% | viability, T/C (second compound 0.3 µM, first compound 0.1 µM): 3% | viability, T/C (second compound 0.3 µM, first compound 0.316 µM): 1.18% | viability, T/C (second compound 0.3 µM, first compound 1 µM): 1.93% | viability, T/C (second compound 0.949 µM, first compound 0.00316 µM): 55.5% | viability, T/C (second compound 0.949 µM, first compound 0.01 µM): 44.2% | viability, T/C (second compound 0.949 µM, first compound 0.0316 µM): 23.3% | viability, T/C (second compound 0.949 µM, first compound 0.1 µM): 2.29% | viability, T/C (second compound 0.949 µM, first compound 0.316 µM): 1.21% | viability, T/C (second compound 0.949 µM, first compound 1 µM): 3.73% | viability, T/C (second compound 3 µM, first compound 0.00316 µM): 40.3% | viability, T/C (second compound 3 µM, first compound 0.01 µM): 36% | viability, T/C (second compound 3 µM, first compound 0.0316 µM): 3.79% | viability, T/C (second compound 3 µM, first compound 0.1 µM): 0.28% | viability, T/C (second compound 3 µM, first compound 0.316 µM): 0.56% | viability, T/C (second compound 3 µM, first compound 1 µM): 2.69%

Cn1ncnc1[C@H]1c2n[nH]c(=O)c3cc(F)cc(c23)N[C@@H]1c1ccc(F)cc1 + CNC(C)C(=O)NC1CN(S(=O)(=O)c2cccc(S(=O)(=O)N3CCC4CCC(C(=O)NC(c5ccccc5)c5ccccc5)N4C(=O)C(NC(=O)C(C)NC)C3)c2)CCC2CCC(C(=O)NC(c3ccccc3)c3ccccc3)N2C1=O
IC50 (curve of first compound, second compound 0.00316 µM): < 0.316 nM | IC50 (curve of first compound, second compound 0.01 µM): > 100 nM | IC50 (curve of first compound, second compound 0.0316 µM): > 100 nM | IC50 [1]: > 100 nM | IC50 [2]: > 100 nM | IC50 [3]: > 100 nM | viability, T/C (second compound 0.00316 µM, first compound 0.000316 µM): 10.7% | viability, T/C (second compound 0.00316 µM, first compound 0.001 µM): 10.5% | viability, T/C (second compound 0.00316 µM, first compound 0.00316 µM): 7.58% | viability, T/C (second compound 0.00316 µM, first compound 0.01 µM): 9.25% | viability, T/C (second compound 0.00316 µM, first compound 0.0316 µM): 9.45% | viability, T/C (second compound 0.00316 µM, first compound 0.1 µM): 8.48% | viability, T/C (second compound 0.01 µM, first compound 0.000316 µM): 95% | viability, T/C (second compound 0.01 µM, first compound 0.001 µM): 101% | viability, T/C (second compound 0.01 µM, first compound 0.00316 µM): 97.2% | viability, T/C (second compound 0.01 µM, first compound 0.01 µM): 92.4% | viability, T/C (second compound 0.01 µM, first compound 0.0316 µM): 95.1% | viability, T/C (second compound 0.01 µM, first compound 0.1 µM): 98.5% | viability, T/C (second compound 0.0316 µM, first compound 0.000316 µM): 91.5% | viability, T/C (second compound 0.0316 µM, first compound 0.001 µM): 95.5% | viability, T/C (second compound 0.0316 µM, first compound 0.00316 µM): 101% | viability, T/C (second compound 0.0316 µM, first compound 0.01 µM): 102% | viability, T/C (second compound 0.0316 µM, first compound 0.0316 µM): 100% | viability, T/C (second compound 0.0316 µM, first compound 0.1 µM): 110% | viability, T/C (second compound 0.1 µM, first compound 0.000316 µM): 106% | viability, T/C (second compound 0.1 µM, first compound 0.001 µM): 108% | viability, T/C [4]: 103% | viability, T/C [5]: 108% | viability, T/C [6]: 102% | viability, T/C [7]: 103% | viability, T/C (second compound 0.316 µM, first compound 0.000316 µM): 97.6% | viability, T/C (second compound 0.316 µM, first compound 0.001 µM): 104% | viability, T/C [8]: 102% | viability, T/C [9]: 104% | viability, T/C [10]: 102% | viability, T/C [11]: 98.4% | viability, T/C (second compound 1 µM, first compound 0.000316 µM): 107% | viability, T/C (second compound 1 µM, first compound 0.001 µM): 99.2% | viability, T/C [12]: 97.2% | viability, T/C [13]: 99.2% | viability, T/C [14]: 96% | viability, T/C [15]: 101%

CCN1CCN(Cc2ccc(Nc3ncc(F)c(-c4cc(F)c5nc(C)n(C(C)C)c5c4)n3)nc2)CC1 + Cc1c(S(C)(=O)=O)c(-c2cc(F)cc(N3CCN(c4ccc(NS(=O)(=O)c5ccc(NC(CCN6CCC(C(=O)OCCCP(=O)(O)O)CC6)CSc6ccccc6)c(S(=O)(=O)C(F)(F)F)c5)cc4)CC3)c2)c(-c2ccc(Cl)cc2)n1C(C)C
IC50 [1]: > 1000 nM | IC50 [2]: > 1000 nM | IC50 [3]: > 1000 nM | IC50 (curve of first compound, second compound 3.16 µM): < 3.16 nM | IC50 (curve of first compound, second compound 10 µM): < 3.16 nM | viability, T/C [4]: 92.5% | viability, T/C [5]: 89.3% | viability, T/C [6]: 92.6% | viability, T/C [7]: 96.5% | viability, T/C (second compound 0.1 µM, first compound 0.316 µM): 100% | viability, T/C (second compound 0.1 µM, first compound 1 µM): 129% | viability, T/C [8]: 86% | viability, T/C [9]: 84.9% | viability, T/C [10]: 93.2% | viability, T/C [11]: 99.7% | viability, T/C (second compound 0.316 µM, first compound 0.316 µM): 109% | viability, T/C (second compound 0.316 µM, first compound 1 µM): 130% | viability, T/C [12]: 68.5% | viability, T/C [13]: 75.8% | viability, T/C [14]: 77.9% | viability, T/C [15]: 78% | viability, T/C (second compound 1 µM, first compound 0.316 µM): 99.3% | viability, T/C (second compound 1 µM, first compound 1 µM): 95.9% | viability, T/C (second compound 3.16 µM, first compound 0.00316 µM): 45.9% | viability, T/C (second compound 3.16 µM, first compound 0.01 µM): 52.7% | viability, T/C (second compound 3.16 µM, first compound 0.0316 µM): 58.6% | viability, T/C (second compound 3.16 µM, first compound 0.1 µM): 69% | viability, T/C (second compound 3.16 µM, first compound 0.316 µM): 86.1% | viability, T/C (second compound 3.16 µM, first compound 1 µM): 54.8% | viability, T/C (second compound 10 µM, first compound 0.00316 µM): 30% | viability, T/C (second compound 10 µM, first compound 0.01 µM): 32.9% | viability, T/C (second compound 10 µM, first compound 0.0316 µM): 34% | viability, T/C (second compound 10 µM, first compound 0.1 µM): 39.4% | viability, T/C (second compound 10 µM, first compound 0.316 µM): 67.7% | viability, T/C (second compound 10 µM, first compound 1 µM): 24.7%

COc1c(OCCCN2CCOCC2)ccc2c3n(c(=NC(=O)c4cnc(N)nc4)nc12)CCN3
viability, T/C (compound 0.00316 µM): 102% (2×) and 105% | viability, T/C (compound 0.01 µM): 107% and 102% and 98.3% | viability, T/C (compound 0.0316 µM): 111% and 100% and 68% | viability, T/C (compound 0.1 µM): 95.3% and 105% and 36.9% | viability, T/C (compound 0.316 µM): 48.7% and 43.9% and 18.3% | viability, T/C (compound 1 µM): 28.9% and 26% and 11.2% | IC50 (curve of compound): 305 nM and 281 nM and 62.4 nM
